Results published in ChEMBL document CHEMBL1821715, “Synthesis, characterization and pharmacological activity of 4-{[1-substituted aminomethyl-4-arylideneamino-5-sulfanyl-4,5-dihydro-1H-1,2,4-triazol-3-yl]methyl}-2H-1,4-benzothiazin-3(4H)-ones” (2011).

Columns and labels:
Format in all cases: functional
Rattus norvegicus [1] = test: Antiinflammatory activity in Wistar albino rat assessed as reduction of carrageenan-induced paw volume at 20 mg/kg, po administered 30 mins before carrageenan challenge measured after 0.5 hr relative to control; design: scale not given: the % may be the effect or the level left
Rattus norvegicus [2] = test: Antiinflammatory activity in Wistar albino rat assessed as reduction of carrageenan-induced paw volume at 20 mg/kg, po administered 30 mins before carrageenan challenge measured after 1 hr relative to control; design: scale not given: the % may be the effect or the level left
Rattus norvegicus [3] = test: Antiinflammatory activity in Wistar albino rat assessed as reduction of carrageenan-induced paw volume at 20 mg/kg, po administered 30 mins before carrageenan challenge measured after 2 hrs relative to control; design: scale not given: the % may be the effect or the level left
Rattus norvegicus [4] = test: Analgesic activity in Wistar albino rat assessed as reaction time required for tail flicking at 20 mg/kg after 30 mins by tail-flick method relative to control
Rattus norvegicus [5] = test: Analgesic activity in Wistar albino rat assessed as reaction time required for tail flicking at 20 mg/kg after 60 mins by tail-flick method relative to control
Rattus norvegicus [6] = test: Analgesic activity in Wistar albino rat assessed as reaction time required for tail flicking at 20 mg/kg after 90 mins by tail-flick method relative to control

Row | Structure (SMILES) | Activity (Rattus norvegicus [1]) | Activity (Rattus norvegicus [2]) | Activity (Rattus norvegicus [3]) | Time (Rattus norvegicus [4]) | Time (Rattus norvegicus [5]) | Time (Rattus norvegicus [6])
1 | CN1CCN(Cn2nc(CN3C(=O)CSc4ccccc43)n(/N=C/c3ccc(Cl)cc3)c2=S)CC1 | 38.51% | 44.12% | 42.86% | 4.575 s | 5.375 s | 5 s
2 | O=C1CSc2ccccc2N1Cc1nn(CN2CCOCC2)c(=S)n1/N=C/c1ccc([N+](=O)[O-])cc1 | 37.84% | 42.16% | 31.82% | 5.425 s | 6.05 s | 6.025 s
3 | O=C1CSc2ccccc2N1Cc1nn(CN2CCOCC2)c(=S)n1/N=C/c1ccccc1 | 5.4% | 10.13% | 10.39% | 3.175 s | 3.375 s | 3.4 s
4 | COc1ccc2c(c1)c(CC(=O)O)c(C)n2C(=O)c1ccc(Cl)cc1 [INDOMETHACIN] | 66.89% | 70.26% | 69.81% | – | – | –
5 | O=C1CSc2ccccc2N1Cc1nn(CN2CCCCC2)c(=S)n1/N=C/c1ccc([N+](=O)[O-])cc1 | 52.71% | 55.56% | 58.77% | 5.1 s | 5.3 s | 4.875 s
6 | CN1CCN(Cn2nc(CN3C(=O)CSc4ccccc43)n(/N=C/c3ccc([N+](=O)[O-])cc3)c2=S)CC1 | 33.11% | 40.53% | 37.34% | 5.475 s | 5.975 s | 6.05 s
7 | CC(C)=CCN1CC[C@]2(C)c3cc(O)ccc3C[C@H]1[C@H]2C [(+)-PENTAZOCINE] | – | – | – | 6.4 s | 7.175 s | 7.45 s
8 | O=C1CSc2ccccc2N1Cc1nn(CN2CCOCC2)c(=S)n1/N=C/c1ccc(O)cc1 | 53.38% | 45.1% | 38.97% | 4.3 s | 5 s | 6 s
9 | CN1CCN(Cn2nc(CN3C(=O)CSc4ccccc43)n(/N=C/c3ccccc3)c2=S)CC1 | 8.1% | 9.8% | 10.39% | 3.5 s | 4.3 s | 4.225 s
10 | O=C1CSc2ccccc2N1Cc1nn(CN2CCOCC2)c(=S)n1/N=C/c1ccc(Cl)cc1 | 28.04% | 32.35% | 29.55% | 4.8 s | 4.875 s | 4.075 s
11 | O=C(O)CN1C(=O)CSc2ccccc21 | 38.51% | 30.07% | 27.93% | 5.775 s | 6.5 s | 6.875 s
12 | O=C1CSc2ccccc2N1Cc1nn(CN2CCCCC2)c(=S)n1/N=C/c1ccccc1 | 40.21% | 41.18% | 41.23% | 3.925 s | 5.3 s | 5.5 s
